Like-named read-outs stand apart in the source and are kept apart here.
Assays:
MDA-MB-231 tumors [1] = type: in vivo, NSG mice
Protocol: MDA-MB-231 tumors were generated by subcutaneous implantation of cultured cells at 2×10^6 in NSG mice.
FITC-CAR-T cells were prepared as described previously. After culturing in-vitro for 12-20 days, they were frozen and stored at −80° C. in a freezing reagent containing 50% heat-inactivated AB+ human serum, 40% T cell culture media, and 10% DMSO. Frozen CAR-T cells were quickly thawed at 37° C., washed twice with PBS, and used for animal injection.
In general, EC17/CAR-T therapy initiated when mouse tumors reached ˜200-250 mm^3 and weekly EC17 doses at 500 nmol/kg started 2 days after the CAR-T administration. All EC17 doses were given towards the end of day (˜3-4 PM) to allow cytokine release syndrome (CRS) to develop overnight. Sodium fluorescein rescue at various doses (0.06-60 μmol/kg) was administrated after the first dose of EC17, when the animals experienced a severe CRS of grade 3-4 on a 0-5 grading scale (FIG. 31). Plasma samples at various time points (3-27 hours) post sodium fluorescein rescue were collected for multiplex cytokine analysis.
Approximately 48 hours after CAR-T cell infusion, mice were separated into 3 groups. The first group (#1) was not dosed with EC17 and served as the CAR-T cell control, the second (#2) and the third (#3) groups were intravenously injected with a single dose of EC17 (500 nmol/kg). […] Group #2 then received a single intravenous sodium fluorescein (60 μmol/kg) while group #3 was left un-rescued. […] Three satellite animals from each group were euthanized to collect blood and organs for cytokine analysis and organ toxicity evaluation. Whole blood was obtained via cardiac puncture and collected into EDTA containing tubes. Twenty-seven hours after sodium fluorescein rescue, mice rescued with 60 μmol/kg sodium fluorescein in group #2 were recovering and sCRS scale decreased to grade 2, while mice without rescue in group #3 had worse sCRS (grade 3-4). At this time, 6 satellite mice from each group were euthanized for blood collection and organ evaluation. The remaining mice were dosed with a single dose of 500 nmol/kg EC17 every week if desired, and the EC17 dosing dates were labeled in FIG. 36 as dashed vertical lines occurring after the notation “EC17”. Tumor volume and body weight changes were monitored 2-3 times per week.
To evaluate whether a lower level of sodium fluorescein can also rescue mice under sCRS, the same rescue study was performed except that sodium fluorescein was dosed at 0.06, 0.6, and 6 μmol/kg.

MDA-MB-231 tumors [2] = experiment: Host mouse cytokines after NaFL rescue (Example 48); type: in vivo, NSG mice
Protocol: In the first part of the study (FIG. 75), mice were treated with EC17 and FITC-CAR-T cells. When mice started to show sCRS, one dose of 60 umol/kg NaFL was injected for rescue. Mouse blood samples were then collected at both 7 hours and 27 hours post NaFL rescue. Mouse cytokine levels in blood were analyzed using a mouse inflammation panel kit (Cat. No. 740446) from BioLegend by following the manufacturer's instructions. FIGS. 76 A-E show cytokine levels 7 hours post rescue. FIGS. 77A-C show cytokine levels 27 hours post rescue.
In the second part of the study, a series of concentrations of NaFL were tested for their rescue efficiency (FIG. 78). As shown in FIGS. 79-81, mice cytokine levels in blood were also dependent on the concentrations of sodium fluorescein used for rescue, and the median effective dose is about 0.6 μmol/kg with cytokines tested (e.g. MCP-1, IL-6, and IL-10) and the mice started to respond as early as 3 hours post rescue.

s.c. MDA-MB-231 tumors = experiment: EC17 dose escalation cycles versus weekly dosing (Example 45); type: in vivo, mice
Protocol: The effect of EC17 dose de-escalation was investigated on the anti-tumor activity and the toxicity (body weight changes) of CAR-T therapy. 8.5 million frozen anti-FITC CAR-T cells were thawed and i.v. injected into mice bearing s.c. MDA-MB-231 tumors (100-200 mm3). 500 nmol/kg EC17 was administered 2 days after CAR-T injection and caused sCRS in mice. […] The first group was dosed with 500 nmol/kg EC17 weekly (SIW), whereas the second group was dosed with two EC17 escalation cycles. Each cycle lasted for 2 weeks (14 days). The dosing schedule in each cycle included 5 nmol/kg EC17 at day 1, 50 nmol/kg EC17 at day 3, 500 nmol/kg EC17 on day 5. After 9 days break, the second escalation cycle started. Tumor sizes and body weights were monitored 2-3 times per week.

[3] = 60 μmol/kg, 7 hours and 27 hours post rescue

| SMILES | tumor growth (MDA-MB-231 tumors [1]; 500 nmol/kg SIW, ~10.4 million FITC-CAR-T) | mouse cytokine levels in blood (MCP-1, IL-6, IL-10, IFN-β, TNF-α) (MDA-MB-231 tumors [2]; EC17 dosed versus CAR-T without EC17) | body weight loss of escalation group (s.c. MDA-MB-231 tumors; cycles of 5, 50, 500 nmol/kg at day 1, 3, 5) | recovery (MDA-MB-231 tumors [1]; 0.06 μmol/kg) | recovery (MDA-MB-231 tumors [1]; 6 μmol/kg) | time to near normal range of IFN-γ (MDA-MB-231 tumors [1]; 60 μmol/kg) | time to normal range of IL-2, TNF-α, IL-3, GM-CSF, IL-6 (MDA-MB-231 tumors [1]; 60 μmol/kg) | human cytokine levels in blood (MDA-MB-231 tumors [1]; [3]) | sCRS severity (MDA-MB-231 tumors [1]; 0.06, 0.6, 6 μmol/kg, ~8.3 million CAR-T) | sCRS grade (MDA-MB-231 tumors [1]; 7 hours after 60 μmol/kg rescue, 0-5 grading scale) | sCRS grade (MDA-MB-231 tumors [1]; 27 hours after 60 μmol/kg rescue) | lung edema (MDA-MB-231 tumors [1]; 27 hours after rescue, 60 μmol/kg) | median effective dose (human cytokine levels in mouse blood) (MDA-MB-231 tumors [1]; IL-2, TNF-α, IFN-γ etc.) | earliest cytokine response post rescue (MDA-MB-231 tumors [1]; key cytokines) | effect on anti-tumor activity of EC17/CAR-T therapy (MDA-MB-231 tumors [1]; one dose 6 μmol/kg) | effect on CAR-T anti-tumor activity (MDA-MB-231 tumors [1]; one dose 60 μmol/kg) | mouse cytokine levels in blood (MDA-MB-231 tumors [2]; [3]) | earliest response post rescue (MDA-MB-231 tumors [2]; mouse, in vivo) | median effective dose (mouse MCP-1, IL-6, IL-10) (MDA-MB-231 tumors [2]; mouse, in vivo) | rescue from sCRS (s.c. MDA-MB-231 tumors; 6 umol/kg) |
| --- | --- | --- | --- | --- | --- | --- | --- | --- | --- | --- | --- | --- | --- | --- | --- | --- | --- | --- | --- | --- |
| Nc1nc2ncc(CNc3ccc(C(=O)NC(CCC(=O)NCCNC(=S)Nc4ccc(-c5c6ccc(=O)cc-6oc6cc(O)ccc56)c(C(=O)O)c4)C(=O)O)cc3)nc2c(=O)[nH]1 (centres unmarked) [EC17, FITC-Folate] | started to shrink and disappeared eventually | increased mouse cytokine levels | much less than that of the EC17 SIW group | – | – | – | – | – | – | – | – | – | – | – | – | – | – | – | – | – |
| O=C([O-])c1ccccc1-c1c2ccc(=O)cc-2oc2cc([O-])ccc12.[Na+].[Na+] [sodium fluorescein] | – | – | – | slowest recovery | recovered the fastest | 27 h | 7 h | much lower than those in un-rescued mice | dose-dependent reduction of sCRS severity | low grade 3 | 2 grade | lung edema was improved | about 0.6 μmol/kg | 3 h | didn't affect the anti-tumor activity | did not interfere with CAR-T anti-tumor activity in vivo | much lower than those in un-rescued mice | 3 h | about 0.6 μmol/kg | successfully rescued |

From patent US11759480B2, “Compositions and methods for CAR T cell therapy” (ENDOCYTE, INC., priority 2017, dated 2023)
